# Starred links: 1 amine or outer side, 2 acyl side, 3 side chain; linkers in the order of their positions; H or OH if unused. Non-standard residues stand in square brackets, D forms with d. Residues, ends and D or L forms follow the SMILES beside them. *: point of attachment. NH(2-(1-naphthyl)ethyl) = c1ccc2c(CCN*)cccc2c1; NHCH2CH2(piperidin-1-yl) = C1CCN(CCN*)CC1; X4 = c1ccc(CC2CCN(CCN*)CC2)cc1; X1 = CC(=O)Nc1cccc(OCCCN*)c1; X2 = c1ccc2cc(CCN*)ccc2c1; 4Abz = Nc1ccc(C(=O)O)cc1; X3 = CCCCCc1ccc(CN*)cc1; CO = O=C([*:1])[*:2]; NHBn = c1ccc(CN*)cc1; NHHex = CCCCCCN*
# Molecular target: RAC-alpha serine/threonine-protein kinase (Homo sapiens, UniProt P31749)
# Sequence (P31749 whole entry): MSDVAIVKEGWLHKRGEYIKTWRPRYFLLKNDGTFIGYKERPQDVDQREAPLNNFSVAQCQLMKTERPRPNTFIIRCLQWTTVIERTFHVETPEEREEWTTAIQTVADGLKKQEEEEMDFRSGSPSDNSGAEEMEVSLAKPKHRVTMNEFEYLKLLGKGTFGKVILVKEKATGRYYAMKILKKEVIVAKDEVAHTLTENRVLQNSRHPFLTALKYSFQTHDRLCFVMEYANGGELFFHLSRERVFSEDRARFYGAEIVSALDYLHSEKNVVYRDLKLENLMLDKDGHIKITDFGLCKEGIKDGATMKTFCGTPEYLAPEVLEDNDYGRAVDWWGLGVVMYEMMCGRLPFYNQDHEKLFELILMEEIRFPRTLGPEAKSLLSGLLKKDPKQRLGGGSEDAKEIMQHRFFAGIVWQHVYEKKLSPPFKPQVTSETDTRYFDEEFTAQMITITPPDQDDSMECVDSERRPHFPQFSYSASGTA
# Test: Inhibition of Akt after 1 hr by fluorescence polarization assay
row,Compound,IC50 [µM]
1,CC(C)[C@H](NC(=O)c1ccc(NCCNC(=N)N)cc1)C(=O)N[C@@H](Cc1ccccc1)C(=O)NCc1ccccc1,390
2,CC(C)[C@H](NC(=O)c1ccc(CNC(=N)N)cc1)C(=O)N[C@@H](Cc1ccccc1)C(=O)NCc1ccccc1,> 500
3,CC(C)[C@H](NC(=O)c1ccc(CCN=C(N)N)cc1)C(=O)N[C@@H](Cc1ccccc1)C(=O)NCc1ccccc1,120
4,CCCCCCNC(=O)[C@H](Cc1ccccc1)NC(=O)[C@@H](NC(=O)c1ccc(NC(=O)[C@H](CCCNC(=N)N)NC(C)=O)cc1)C(C)C,163
5,CCCCCc1ccc(CNC(=O)[C@H](Cc2ccccc2)NC(=O)[C@@H](NC(=O)c2ccc(NC(=O)[C@H](CCCN=C(N)N)NC(C)=O)cc2)C(C)C)cc1,104
6,CC(C)[C@H](NC(=O)c1ccc(NC(=O)CCCCNC(=N)N)cc1)C(=O)N[C@@H](Cc1ccccc1)C(=O)NCc1ccccc1,193
7,CC(=O)NCC(=O)N[C@@H](C)C(=O)N1CCC[C@H]1C(=O)N[C@@H](C)C(=O)Nc1ccc(C(=O)N[C@H](C(=O)N[C@@H](Cc2ccccc2)C(=O)NCc2ccccc2)C(C)C)cc1 (Ac-GAPA[4Abz]VF-NHBn),> 500
8,CC(=O)NCC(=O)N[C@@H](CCCNC(=N)N)C(=O)N1CCC[C@H]1C(=O)N[C@@H](CCCNC(=N)N)C(=O)N[C@@H](C)C(=O)N[C@@H](C)C(=O)N[C@H](C(=O)N[C@@H](Cc1ccccc1)C(=O)NCc1ccccc1)C(C)C (Ac-GRPRAAVF-NHBn),438
9,CC(=O)NCC(=O)N[C@@H](CCCNC(=N)N)C(=O)N1CCC[C@H]1C(=O)N[C@@H](CCCNC(=N)N)C(=O)N[C@H](C(=O)N[C@H](C(=O)N[C@H](C(=O)N[C@@H](Cc1ccccc1)C(=O)NCc1ccccc1)C(C)C)[C@@H](C)O)[C@@H](C)O (Ac-GRPRTTVF-NHBn),239
10,CC(=O)NCC(=O)N[C@@H](CCCNC(=N)N)C(=O)N1CCC[C@H]1C(=O)N[C@@H](CCCNC(=N)N)C(=O)Nc1ccc(C(=O)N[C@H](C(=O)N[C@@H](Cc2ccccc2)C(=O)NCCCOc2cccc(NC(C)=O)c2)C(C)C)cc1 (Ac-GRPR[4Abz]VF-X1),322
11,CC(=O)NCC(=O)N[C@@H](CCCNC(=N)N)C(=O)N1CCC[C@H]1C(=O)N[C@@H](CCCNC(=N)N)C(=O)Nc1ccc(C(=O)N[C@H](C(=O)N[C@@H](Cc2ccccc2)C(=O)NCCN2CCCCC2)C(C)C)cc1 (Ac-GRPR[4Abz]VF-{NHCH2CH2(piperidin-1-yl)}),> 500
12,CC(=O)N[C@@H](CCCN=C(N)N)C(=O)Nc1ccc(C(=O)N[C@H](C(=O)N[C@@H](Cc2ccccc2)C(=O)NCc2ccccc2)C(C)C)cc1 (Ac-R[4Abz]VF-NHBn),119
13,C[C@@H](O)[C@H](NC(=O)[C@H](CCCNC(=N)N)NC(=O)[C@@H]1CCCN1C(=O)[C@H](CCCNC(=N)N)NC(=O)CNC(=O)O)C(=O)N[C@H](C(=O)N[C@@H](CC(N)=O)C(=O)N[C@@H](Cc1ccccc1)C(=O)O)[C@@H](C)O ({CO}-GRPRTTNF-OH),229
14,Ac-GRPRTTAF-OH,409
15,Ac-GRPRTTCF-OH,241
16,Ac-GRPRTTFF-OH,> 500
17,Ac-GRPRTTHF-OH,> 500
18,Ac-GRPRTTVF-OH,445
19,Ac-GRPRTTWF-OH,> 500

# Compounds with a lower IC50, results first:
row,IC50 [µM],Compound
1,96,CCCCCc1ccc(CNC(=O)[C@H](Cc2ccccc2)NC(=O)[C@@H](NC(=O)c2ccc(NC(=O)[C@H](CCCN=C(N)N)NC(=O)[C@@H]3CCCN3C(=O)[C@H](CCCN=C(N)N)NC(=O)CNC(C)=O)cc2)C(C)C)cc1 (Ac-GRPR[4Abz]VF-X3)
2,94,CC(=O)NCC(=O)N[C@@H](CCCNC(=N)N)C(=O)N1CCC[C@H]1C(=O)N[C@@H](CCCNC(=N)N)C(=O)Nc1ccc(C(=O)N[C@H](C(=O)N[C@@H](Cc2ccccc2)C(=O)NCCN2CCC(Cc3ccccc3)CC2)C(C)C)cc1 (Ac-GRPR[4Abz]VF-X4)
3,89,CC(=O)N[C@@H](CCCNC(=N)N)C(=O)Nc1ccc(C(=O)N[C@H](C(=O)N[C@@H](Cc2ccccc2)C(=O)NCCc2cccc3ccccc23)C(C)C)cc1
4,79,CC(=O)NCC(=O)N[C@@H](CCCN=C(N)N)C(=O)N1CCC[C@H]1C(=O)N[C@@H](C)C(=O)Nc1ccc(C(=O)N[C@H](C(=O)N[C@@H](Cc2ccccc2)C(=O)NCc2ccccc2)C(C)C)cc1 (Ac-GRPA[4Abz]VF-NHBn)
5,77,CC(C)[C@H](NC(=O)c1ccc(NC(=N)N)cc1)C(=O)N[C@@H](Cc1ccccc1)C(=O)NCc1ccccc1
6,62,CC(=O)NCC(=O)N[C@@H](CCCNC(=N)N)C(=O)N1CCC[C@H]1C(=O)N[C@@H](CCCNC(=N)N)C(=O)Nc1ccc(C(=O)N[C@H](C(=O)N[C@@H](Cc2ccccc2)C(=O)NCCc2cccc3ccccc23)C(C)C)cc1 (Ac-GRPR[4Abz]VF-{NH(2-(1-naphthyl)ethyl)})
7,58,CC(C)[C@H](NC(=O)c1ccc(N(CC(=O)NC(C)(C)C)C(=O)CCCCNC(=N)N)cc1)C(=O)N[C@@H](Cc1ccccc1)C(=O)NCc1ccccc1
8,52,CCCCCCNC(=O)[C@H](Cc1ccccc1)NC(=O)[C@@H](NC(=O)c1ccc(NC(=O)[C@H](CCCN=C(N)N)NC(=O)[C@@H]2CCCN2C(=O)[C@H](CCCN=C(N)N)NC(=O)CNC(C)=O)cc1)C(C)C (Ac-GRPR[4Abz]VF-NHHex)
9,51,CC(=O)N[C@@H](CCCN=C(N)N)C(=O)Nc1ccc(C(=O)N[C@H](C(=O)N[C@@H](Cc2ccccc2)C(=O)NCCc2ccc3ccccc3c2)C(C)C)cc1
10,41,CC(=O)NCC(=O)N[C@@H](C)C(=O)N1CCC[C@H]1C(=O)N[C@@H](CCCNC(=N)N)C(=O)Nc1ccc(C(=O)N[C@H](C(=O)N[C@@H](Cc2ccccc2)C(=O)NCc2ccccc2)C(C)C)cc1 (Ac-GAPR[4Abz]VF-NHBn)
11,36,CC(=O)NCC(=O)N[C@@H](CCCN=C(N)N)C(=O)N1CCC[C@H]1C(=O)N[C@@H](CCCN=C(N)N)C(=O)Nc1ccc(C(=O)N[C@H](C(=O)N[C@@H](Cc2ccccc2)C(=O)NCCc2ccc3ccccc3c2)C(C)C)cc1 (Ac-GRPR[4Abz]VF-X2)
12,14,CC(C)[C@H](NC(=O)c1ccc(N(CC(=O)NCc2ccccc2)C(=O)CCCCNC(=N)N)cc1)C(=O)N[C@@H](Cc1ccccc1)C(=O)NCc1ccccc1
